The text below walks through data of ChEMBL document CHEMBL1201862, “PubChem BioAssay data set” (2004).

Molecules are shown by their SMILES.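 Grown in 96-well plates, cells were treated for 48 hours with each compound at five concentrations. Insufficient inhibition: endpoint recorded as highest concentration tested. GI50: concentration for 50% inhibition of growth.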 Calls of active or inactive are those of the source. Rule as the data show it: active = GI50 up to about 1.1 µM and inactive = higher.

Some test systems named below: A549; HCT-116; DU-145; SR; MDA-N; OVCAR-8; Hs-578T; SF-268; NCI-H522; LOX IMVI; UO-31; SK-MEL-28; NCI-H226; HL-60; CCRF-CEM; NCI-H23; SF-539; UACC-257; 786-0; T47D.
Common to all, as to assay: DTP human tumour cell line panel, 48 h

In general, GI50 refers to the concentration at which growth is held to half of that of the control.

For the compound `CC(C)c1ccc(O)c(=O)c(O)c1.CC(C)c1ccc(O)c(=O)cc1.CC(C)c1cccc(=O)c(O)c1.CC(C)c1ccccc(=O)c1O`, the GI50 in the assay on A549 is 1.07 µM (active); in the assay with HCT-116 it was 0.373 µM (active); with DU-145, 1.42 µM (inactive); in the assay on SR it was 0.262 µM (active); in the assay with MDA-N it was 3.32 µM (inactive); in the assay with OVCAR-8, 0.604 µM (active). The GI50 was 4.46 µM (inactive) in the assay on Hs-578T; 0.632 µM (active) with SF-268; 0.456 µM (active) with NCI-H522; 0.76 µM (active) in the assay on LOX IMVI; 0.841 µM (active) with UO-31; 2.05 µM (inactive) in the assay with SK-MEL-28. Besides, the GI50 in the assay on NCI-H226 was 1.76 µM (inactive); in the assay with HL-60 it was 0.281 µM (active); in the assay with CCRF-CEM, 0.21 µM (active); in the assay with NCI-H23, 0.851 µM (active); with SF-539, 0.598 µM (active); with UACC-257, 0.322 µM (active). Besides, the GI50 was 0.719 µM (active) with 786-0 and 1.88 µM (inactive) with T47D.

`COc1cc([C@H]2Oc3c(OC)cc(CCCO)cc3[C@@H]2CO)ccc1O` [DIHYDRODEHYDRODICONIFERY ALCOHOL]: the GI50 in the assay with A549, in the assay on HCT-116, in the assay with DU-145, in the assay on SR, in the assay with MDA-N and in the assay with OVCAR-8 was > 100 µM (inactive) in each case. For the same compound, the GI50 with Hs-578T was 47.2 µM (inactive); with SF-268, > 100 µM (inactive); in the assay on NCI-H522, 69.2 µM (inactive); in the assay with LOX IMVI, > 100 µM (inactive); in the assay on UO-31, 57.8 µM (inactive); in the assay with SK-MEL-28, > 100 µM (inactive). In addition, the GI50 was > 100 µM (inactive) in the assay on NCI-H226; > 100 µM (inactive) in the assay on HL-60; > 100 µM (inactive) in the assay on CCRF-CEM; 54.5 µM (inactive) in the assay with NCI-H23; > 100 µM (inactive) with SF-539; 43.4 µM (inactive) in the assay with UACC-257. Besides, the GI50 is > 100 µM (inactive) in the assay on 786-0 and 30.3 µM (inactive) with T47D.

Turning to `OCCCc1ccc2c(c1)[C@H](CO)[C@@H](c1ccc(O)cc1)O2`, the GI50 in the assay with A549 is > 100 µM (inactive); in the assay on HCT-116 it was > 100 µM (inactive); in the assay with DU-145, > 100 µM (inactive); in the assay with SR it was 33.6 µM (inactive); in the assay with MDA-N, 87.7 µM (inactive); in the assay on OVCAR-8, > 100 µM (inactive). The GI50 in the assay on Hs-578T is 19.5 µM (inactive); with SF-268, > 100 µM (inactive); in the assay on NCI-H522, > 100 µM (inactive); with LOX IMVI, > 100 µM (inactive); in the assay on UO-31 it was 68.2 µM (inactive); with SK-MEL-28, 36.4 µM (inactive). Further, the GI50 is > 100 µM (inactive) in the assay with NCI-H226; 78.2 µM (inactive) in the assay on HL-60; 76 µM (inactive) in the assay with CCRF-CEM; 35.8 µM (inactive) in the assay with NCI-H23; > 100 µM (inactive) in the assay with SF-539; 46 µM (inactive) in the assay with UACC-257. For the same compound, the results for the GI50 with 786-0 and with T47D were > 100 µM (inactive) and 39.2 µM (inactive), respectively.

With `CC1(C)N=C(N)N=C(N)N1CCCCc1ccccc1`, the GI50 in the assay on A549 was 0.113 µM (active); in the assay on HCT-116 it was 0.0364 µM (active); with DU-145, 3.57 µM (inactive); with SR, < 0.0334 µM (active); in the assay on MDA-N, 0.046 µM (active); in the assay with OVCAR-8, 0.251 µM (active). Further, the GI50 with Hs-578T is 3.21 µM (inactive); in the assay with SF-268, < 0.025 µM (active); in the assay on NCI-H522, 0.708 µM (active); with LOX IMVI, 0.149 µM (active); with UO-31, 64.3 µM (inactive); in the assay with SK-MEL-28, 8.59 µM (inactive). In addition, the GI50 is 6.47 µM (inactive) in the assay on NCI-H226; 0.431 µM (active) with HL-60; 0.483 µM (active) in the assay with CCRF-CEM; 0.31 µM (active) with NCI-H23; 0.34 µM (active) in the assay with SF-539; 1.63 µM (inactive) in the assay with UACC-257. Further, the GI50 in the assay on 786-0 was < 0.0305 µM (active); with T47D it was 10.4 µM (inactive).

`C=C(CC)C(=O)c1ccc(OCC(=O)O)c(Cl)c1Cl` [ETHACRYNIC ACID]: the GI50 was > 91.8 µM (inactive) with A549; 23.1 µM (inactive) with HCT-116; 29.5 µM (inactive) with DU-145; 31.6 µM (inactive) in the assay with SR; 23.1 µM (inactive) in the assay on MDA-N; 17.5 µM (inactive) in the assay on OVCAR-8. For the same compound, the GI50 in the assay on Hs-578T was 20.5 µM (inactive); in the assay on SF-268 it was 16.7 µM (inactive); in the assay on NCI-H522, 14.8 µM (inactive); in the assay on LOX IMVI, 14.7 µM (inactive); in the assay with UO-31, 19.5 µM (inactive); in the assay with SK-MEL-28, 17.6 µM (inactive). The GI50 was 15.5 µM (inactive) with NCI-H226; 28.3 µM (inactive) in the assay on HL-60; 35.8 µM (inactive) with CCRF-CEM; 25 µM (inactive) in the assay with NCI-H23; 7.87 µM (inactive) in the assay on SF-539; 18.9 µM (inactive) in the assay with UACC-257. Moreover, the values for the GI50 in the assay on 786-0 and with T47D were 6.93 µM (inactive) and 9.35 µM (inactive), respectively.
